In the data set the test system is CCRIS mutagenicity, Ames/micronucleus/aberration tests. The data set is described as follows: CCRIS mutagenicity studies.
Setting [1] is: Test System: AMES SALMONELLA TYPHIMURIUM, Strain/Indicator: TA100, Metabolic Activation: NONE, Method: PREINCUBATION

Activity calls are given as the source filed them. The rule behind the calls is not given here.

As for `NC(=O)OC1CO1` (stereo not drawn), for the setting “Test System: AMES SALMONELLA TYPHIMURIUM, Strain/Indicator: TA1535, Metabolic Activation: RAT, LIVER, MICROSOMES, Method: STANDARD PLATE”, the mutagenic call was “active; positive”.

As for `CC(=O)CN(CC(C)=O)N=O`, the mutagenic call was “active; positive” (Test System: AMES SALMONELLA TYPHIMURIUM, Strain/Indicator: TA100, Metabolic Activation: HAMSTER, LIVER, S-9, 3-METHYLCHOLANTHRENE, Method: PREINCUBATION); “active; positive” (Test System: AMES SALMONELLA TYPHIMURIUM, Strain/Indicator: TA100, Metabolic Activation: HAMSTER, LIVER, S-9, PHENOBARBITAL, Method: PREINCUBATION); “active; positive” (Test System: AMES SALMONELLA TYPHIMURIUM, Strain/Indicator: TA100, Metabolic Activation: HAMSTER, LIVER, S-9, Method: PREINCUBATION); “active; positive” (Test System: AMES SALMONELLA TYPHIMURIUM, Strain/Indicator: TA100, Metabolic Activation: HUMAN, LIVER, S-9, Method: PREINCUBATION); “active; positive” (Test System: AMES SALMONELLA TYPHIMURIUM, Strain/Indicator: TA100, Metabolic Activation: MONKEY, LIVER, S-9, Method: PREINCUBATION); “active; positive” (Test System: AMES SALMONELLA TYPHIMURIUM, Strain/Indicator: TA100, Metabolic Activation: MOUSE, LIVER, S-9, 3-METHYLCHOLANTHRENE, Method: PREINCUBATION). In addition, the mutagenic call runs as follows: (Test System: AMES SALMONELLA TYPHIMURIUM, Strain/Indicator: TA100, Metabolic Activation: MOUSE, LIVER, S-9, PHENOBARBITAL, Method: PREINCUBATION) “active; positive”; (Test System: AMES SALMONELLA TYPHIMURIUM, Strain/Indicator: TA100, Metabolic Activation: MOUSE, LIVER, S-9, Method: PREINCUBATION) “active; positive”; under setting [1], “inactive; negative”; (Test System: AMES SALMONELLA TYPHIMURIUM, Strain/Indicator: TA100, Metabolic Activation: RABBIT, LIVER, S-9, Method: PREINCUBATION) “active; positive”; (Test System: AMES SALMONELLA TYPHIMURIUM, Strain/Indicator: TA100, Metabolic Activation: RAT, LIVER, CYTOSOL, PCB, Method: PREINCUBATION) “active; positive”; (Test System: AMES SALMONELLA TYPHIMURIUM, Strain/Indicator: TA100, Metabolic Activation: RAT, LIVER, MICROSOMES AND CYTOSOL, PCB, Method: PREINCUBATION) “active; positive”. For the same compound, the mutagenic call is “active; positive” (Test System: AMES SALMONELLA TYPHIMURIUM, Strain/Indicator: TA100, Metabolic Activation: RAT, LIVER, MICROSOMES AND G6PDH, PCB, Method: PREINCUBATION); “active; positive” (Test System: AMES SALMONELLA TYPHIMURIUM, Strain/Indicator: TA100, Metabolic Activation: RAT, LIVER, MICROSOMES, PCB, Method: PREINCUBATION); “active; positive” (Test System: AMES SALMONELLA TYPHIMURIUM, Strain/Indicator: TA100, Metabolic Activation: RAT, LIVER, S-9 (HEATED), PCB, Method: PREINCUBATION); “active; positive” (Test System: AMES SALMONELLA TYPHIMURIUM, Strain/Indicator: TA100, Metabolic Activation: RAT, LIVER, S-9, 3-METHYLCHOLANTHRENE, Method: PREINCUBATION); “active; positive” (Test System: AMES SALMONELLA TYPHIMURIUM, Strain/Indicator: TA100, Metabolic Activation: RAT, LIVER, S-9, AROCLOR 1254, Method: PREINCUBATION); “active; positive” (Test System: AMES SALMONELLA TYPHIMURIUM, Strain/Indicator: TA100, Metabolic Activation: RAT, LIVER, S-9, N-BENZYLIMIDAZOLE, Method: PREINCUBATION). Also, the mutagenic call (Test System: AMES SALMONELLA TYPHIMURIUM, Strain/Indicator: TA100, Metabolic Activation: RAT, LIVER, S-9, PCB, Method: PREINCUBATION) was “active; positive”; the mutagenic call (Test System: AMES SALMONELLA TYPHIMURIUM, Strain/Indicator: TA100, Metabolic Activation: RAT, LIVER, S-9, PHENOBARBITAL, Method: PREINCUBATION) was “active; positive”; the mutagenic call (Test System: AMES SALMONELLA TYPHIMURIUM, Strain/Indicator: TA100, Metabolic Activation: RAT, LIVER, S-9, Method: PREINCUBATION) was “active; positive”; the mutagenic call (Test System: AMES SALMONELLA TYPHIMURIUM, Strain/Indicator: TA100, Metabolic Activation: RAT, LIVER, S-9 WITHOUT NADP+, PCB, Method: PREINCUBATION) was “active; positive”; the mutagenic call (Test System: AMES SALMONELLA TYPHIMURIUM, Strain/Indicator: TA100, Method: PREINCUBATION) is “active; positive”; the mutagenic call (Test System: AMES SALMONELLA TYPHIMURIUM, Strain/Indicator: TA104, Metabolic Activation: RAT, LIVER, S-9, AROCLOR 1254, Method: PREINCUBATION) is “inactive; negative”. Besides, the mutagenic call is, setting by setting: (Test System: AMES SALMONELLA TYPHIMURIUM, Strain/Indicator: TA1535, Metabolic Activation: RAT, LIVER, S-9, AROCLOR 1254, Method: PREINCUBATION) “active; positive”; (Test System: AMES SALMONELLA TYPHIMURIUM, Strain/Indicator: TA1975, Metabolic Activation: RAT, LIVER, S-9, AROCLOR 1254, Method: PREINCUBATION) “active; positive”; (Test System: CHINESE HAMSTER V-79, Strain/Indicator: V-79/6-THIOGUANINE, Metabolic Activation: HAMSTER, PANCREAS, DUCT CELL-MEDIATED, Method: STANDARD PLATE) “active; positive”; (Test System: CHINESE HAMSTER V-79, Strain/Indicator: V-79/OUABAIN, Metabolic Activation: HAMSTER, HEPATOCYTES, Method: CELL-MEDIATED) “active; positive”; (Test System: CHINESE HAMSTER V-79, Strain/Indicator: V-79/OUABAIN, Metabolic Activation: HAMSTER, PANCREAS, ACINAR CELL-MEDIATED, Method: STANDARD PLATE) “active; positive”.

With `Nc1cc(S(=O)(=O)[O-])cc2c1C(=O)/C(=N\Nc1ccc(-c3ccc(N/N=C4\C(=O)c5c(N)cc(S(=O)(=O)[O-])cc5C=C4S(=O)(=O)[O-])c(O)c3)cc1O)C(S(=O)(=O)[O-])=C2.[Cu].[Cu].[Na+].[Na+].[Na+].[Na+]`, the mutagenic call is “inactive; negative” (Test System: AMES SALMONELLA TYPHIMURIUM, Strain/Indicator: TA98, Metabolic Activation: HAMSTER, LIVER, S-9, AROCLOR 1254 (10%), Method: PREINCUBATION); “inactive; negative” (Test System: AMES SALMONELLA TYPHIMURIUM, Strain/Indicator: TA98, Metabolic Activation: NONE, Method: PREINCUBATION); “inactive; negative” (Test System: AMES SALMONELLA TYPHIMURIUM, Strain/Indicator: TA98, Metabolic Activation: RAT, LIVER, S-9, AROCLOR 1254 (10%), Method: PREINCUBATION); “inactive; negative” (Test System: AMES SALMONELLA TYPHIMURIUM, Strain/Indicator: TA100, Metabolic Activation: HAMSTER, LIVER, S-9, AROCLOR 1254 (10%), Method: PREINCUBATION); “inactive; negative” under setting [1]; “inactive; negative” (Test System: AMES SALMONELLA TYPHIMURIUM, Strain/Indicator: TA100, Metabolic Activation: RAT, LIVER, S-9, AROCLOR 1254 (10%), Method: PREINCUBATION). The mutagenic call runs as follows: (Test System: AMES SALMONELLA TYPHIMURIUM, Strain/Indicator: TA1535, Metabolic Activation: HAMSTER, LIVER, S-9, AROCLOR 1254 (10%), Method: PREINCUBATION) “inactive; negative”; (Test System: AMES SALMONELLA TYPHIMURIUM, Strain/Indicator: TA1535, Metabolic Activation: NONE, Method: PREINCUBATION) “inactive; negative”; (Test System: AMES SALMONELLA TYPHIMURIUM, Strain/Indicator: TA1535, Metabolic Activation: RAT, LIVER, S-9, AROCLOR 1254 (10%), Method: PREINCUBATION) “inactive; negative”; (Test System: AMES SALMONELLA TYPHIMURIUM, Strain/Indicator: TA1537, Metabolic Activation: HAMSTER, LIVER, S-9, AROCLOR 1254 (10%), Method: PREINCUBATION) “inactive; negative”; (Test System: AMES SALMONELLA TYPHIMURIUM, Strain/Indicator: TA1537, Metabolic Activation: NONE, Method: PREINCUBATION) “inactive; negative”; (Test System: AMES SALMONELLA TYPHIMURIUM, Strain/Indicator: TA1537, Metabolic Activation: RAT, LIVER, S-9, AROCLOR 1254 (10%), Method: PREINCUBATION) “inactive; negative”. For the same compound, under “Test System: AMES SALMONELLA TYPHIMURIUM, Strain/Indicator: TA1538, Metabolic Activation: RAT, LIVER, S-9, AROCLOR 1254, Method: STANDARD PLATE”, the mutagenic call was “inactive; negative”.
